Experimental data published in patent US7589212B2, “Human protein tyrosine phosphatase inhibitors and methods of use” (Procter & Gamble Company, priority 2006, dated 2009).

What was measured:
[1] = biological target: T1, PTP1B (Homo sapiens, UniProt P18031); assay: PTP1B inhibition (IC50); format: biochemical
T1 sequence (P18031 1-435): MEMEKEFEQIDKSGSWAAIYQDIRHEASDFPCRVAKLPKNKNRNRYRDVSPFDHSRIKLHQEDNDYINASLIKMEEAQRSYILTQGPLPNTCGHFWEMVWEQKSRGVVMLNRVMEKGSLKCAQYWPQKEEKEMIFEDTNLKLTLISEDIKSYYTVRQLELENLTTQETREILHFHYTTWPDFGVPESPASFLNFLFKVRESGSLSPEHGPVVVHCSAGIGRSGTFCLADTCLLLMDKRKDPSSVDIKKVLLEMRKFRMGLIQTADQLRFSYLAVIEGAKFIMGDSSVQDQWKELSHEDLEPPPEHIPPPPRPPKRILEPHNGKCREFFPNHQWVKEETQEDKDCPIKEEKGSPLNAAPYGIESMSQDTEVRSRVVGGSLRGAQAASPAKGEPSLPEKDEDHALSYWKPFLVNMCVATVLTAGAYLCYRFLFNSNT

[2] = biological target: HPTPβ (Homo sapiens, UniProt P23467); assay: HPTPβ inhibition (IC50); format: biochemical
Sequence of HPTPβ (P23467 23-1997): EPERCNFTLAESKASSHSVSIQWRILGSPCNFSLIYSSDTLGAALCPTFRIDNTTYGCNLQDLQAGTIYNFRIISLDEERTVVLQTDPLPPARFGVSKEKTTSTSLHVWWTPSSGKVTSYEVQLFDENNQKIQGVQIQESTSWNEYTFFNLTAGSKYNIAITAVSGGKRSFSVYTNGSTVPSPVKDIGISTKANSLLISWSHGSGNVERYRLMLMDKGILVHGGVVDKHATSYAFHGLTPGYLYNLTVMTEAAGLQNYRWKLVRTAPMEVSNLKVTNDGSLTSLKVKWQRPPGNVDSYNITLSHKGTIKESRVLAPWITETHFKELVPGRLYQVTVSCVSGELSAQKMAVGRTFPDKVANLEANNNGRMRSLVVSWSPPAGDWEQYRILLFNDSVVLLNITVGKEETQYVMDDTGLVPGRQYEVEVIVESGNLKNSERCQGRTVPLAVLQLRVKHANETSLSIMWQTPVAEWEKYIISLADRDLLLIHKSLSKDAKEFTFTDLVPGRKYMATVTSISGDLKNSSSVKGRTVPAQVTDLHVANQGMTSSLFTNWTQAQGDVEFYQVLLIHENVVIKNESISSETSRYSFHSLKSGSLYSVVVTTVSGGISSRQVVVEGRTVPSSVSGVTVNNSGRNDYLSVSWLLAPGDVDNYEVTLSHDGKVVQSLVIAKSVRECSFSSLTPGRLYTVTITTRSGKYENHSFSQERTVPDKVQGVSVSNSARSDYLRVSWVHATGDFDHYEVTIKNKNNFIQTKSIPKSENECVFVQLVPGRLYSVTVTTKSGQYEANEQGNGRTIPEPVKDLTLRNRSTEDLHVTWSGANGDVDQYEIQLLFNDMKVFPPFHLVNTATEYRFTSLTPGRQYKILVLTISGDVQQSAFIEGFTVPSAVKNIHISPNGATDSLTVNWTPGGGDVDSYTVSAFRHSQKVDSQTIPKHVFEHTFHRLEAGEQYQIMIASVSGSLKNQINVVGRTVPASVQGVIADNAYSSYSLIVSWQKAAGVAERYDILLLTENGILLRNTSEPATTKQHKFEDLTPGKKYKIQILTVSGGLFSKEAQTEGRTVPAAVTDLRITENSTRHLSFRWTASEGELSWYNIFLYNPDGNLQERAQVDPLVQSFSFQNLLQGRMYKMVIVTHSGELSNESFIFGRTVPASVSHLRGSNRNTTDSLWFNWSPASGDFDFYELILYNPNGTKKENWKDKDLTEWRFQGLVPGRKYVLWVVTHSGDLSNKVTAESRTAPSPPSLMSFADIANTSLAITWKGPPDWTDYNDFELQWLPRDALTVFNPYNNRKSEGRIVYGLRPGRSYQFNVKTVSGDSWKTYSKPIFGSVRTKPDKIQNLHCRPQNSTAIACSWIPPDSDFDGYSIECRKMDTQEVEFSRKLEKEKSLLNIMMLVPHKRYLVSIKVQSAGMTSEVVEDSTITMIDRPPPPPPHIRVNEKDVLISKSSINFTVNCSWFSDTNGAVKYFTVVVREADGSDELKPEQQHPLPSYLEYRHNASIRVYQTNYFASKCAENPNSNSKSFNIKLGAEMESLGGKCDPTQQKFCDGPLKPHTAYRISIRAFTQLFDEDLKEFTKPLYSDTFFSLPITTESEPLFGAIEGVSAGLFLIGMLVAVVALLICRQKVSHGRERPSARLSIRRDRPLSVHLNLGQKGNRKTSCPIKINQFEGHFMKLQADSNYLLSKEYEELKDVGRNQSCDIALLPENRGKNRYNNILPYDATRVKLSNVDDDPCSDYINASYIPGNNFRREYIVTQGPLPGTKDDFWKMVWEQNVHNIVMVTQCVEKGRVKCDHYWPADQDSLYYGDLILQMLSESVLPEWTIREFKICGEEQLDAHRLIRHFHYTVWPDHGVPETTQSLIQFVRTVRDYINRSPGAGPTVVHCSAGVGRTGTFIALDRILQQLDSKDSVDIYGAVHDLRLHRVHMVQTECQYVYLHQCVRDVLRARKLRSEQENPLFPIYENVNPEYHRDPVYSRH

IC50 [1] [nM] | IC50 [2] [nM] | SMILES
580 | 0.009 | Cc1nc(Cc2nnc(N[C@@H](Cc3ccc(NS(=O)(=O)O)cc3)c3csc(-c4cccs4)n3)s2)cs1 [4-((S)-2-(5-((2-Methylthiazol-4-yl)methyl)-1,3,4-thiadiazol-2-ylamino)-2-(2-(thiophen-2-yl)thiazol-4-yl)ethyl)phenylsulfamic acid]
1400 | 3 | Cc1nnc(N[C@@H](Cc2ccc(NS(=O)(=O)O)cc2)c2csc(-c3ccccc3)n2)s1 [(S)-4-(2-(5-methyl-1,3,4-thiadiazol-2-ylamino)-2-(2-phenylthiazol-4-yl)ethyl)phenylsulfamic acid]
4710 | 0.2 | CCCc1nnc(N[C@@H](Cc2ccc(NS(=O)(=O)O)cc2)c2csc(-c3cccs3)n2)s1 [4-((S)-2-(5-Propyl-1,3,4-thiadiazol-2-ylamino)-2-(2-(thiophen-2-yl)thiazol-4-yl)ethyl)phenylsulfamic acid]

The remaining lines, values behind:

SMILES | IC50 [1] [nM] | IC50 [2] [nM]
O=S(=O)(O)Nc1ccc(C[C@H](Nc2nnc(Cc3ccccc3)s2)c2csc(-c3cccs3)n2)cc1 [4-((S)-2-(5-Benzyl-1,3,4-thiadiazol-2-ylamino)-2-(2-(thiophen-2-yl)thiazol-4-yl)ethyl)phenylsulfamic acid] | 3860 | 0.6
COC(=O)Cc1nnc(N[C@@H](Cc2ccc(NS(=O)(=O)O)cc2)c2csc(-c3cccs3)n2)s1 [4-((S)-2-(5-((Methoxycarbonyl)methyl)-1,3,4-thiadiazol-2-ylamino)-2-(2-(thiophen-2-yl)thiazol-4-yl)ethyl)phenylsulfamic acid] | 1550 | 2
O=S(=O)(O)Nc1ccc(C[C@H](Nc2nnc(-c3ccccc3)s2)c2csc(-c3ccccc3)n2)cc1 [(S)-4-(2-(5-Phenyl-1,3,4-thiadiazol-2-ylamino)-2-(2-phenylthiazol-4-yl)ethyl)-phenylsulfamic acid] | 3700 | 46
